Test results reported in US20230000842A1, “METHODS OF TREATING CARTILAGE DISORDERS THROUGH INHIBITION OF CLK AND DYRK” (SAMUMED, LLC, priority 2019, published 2023).

Tests used:
[1] = test system: MMP-3 levels in supernatant of chondrocytes stimulated with IL1-β; test: Chondrocyte protection assay compound screening (MMP-3 LANCE Ultra); type: cell-based, human; conditions: Homo sapiens, Chondrocyte, IL1-β 10 ng/mL overnight, 11-point curves from 3 μM to 0.05 nM; for Emax: read-out: Maximum % Inhibition
Method: Human Chondrocyte Cell Culture: Primary human chondrocytes were purchased from Lonza (Walkersville, Md.) and expanded in Chondrocyte Growth Media (CGM, Lonza). Cells between passage 2 and 5 were used for the experiments.
Chondrocytes were plated at 8,000 cells/well in 40 μL/well Chondrocyte Differentiation Medium (Lonza; 500 mL Basal Medium, 25 mL FBS, 0.5 mL GA-1000, 1 mL R3-IGF, 2.5 mL bFGF, 0.5 mL Transferrin, and 1 mL Insulin). After 2 hours of incubation at 37° C. and 5% CO2, IL1-β (Peprotech, Rocky Hill, N.J.) was added to a final concentration of 10 ng/mL. 11 wells in 1 row were left unstimulated for normalization and calculating EC50 values. Cells were incubated at 37° C. and 5% CO2 overnight. Assay plates are spun, 25 μl of supernatant media was collected using (S2 pipettor, Apricot Designs). Cells were lysed using 10 μL of (Cell Titer-Glo, Promega). Luminescent signal detected using an En Vision Multilabel reader (Perkin Elmer). MMP-3 levels were measured in supernatant. Supernatant diluted 1:7 in DMEM. MMP-3 levels in the supernatant were measured using MMP-3 LANCE Ultra detection kit (Perkin Elmer). Briefly, 5 μL of diluted supernatant was transferred to low-volume 384 well plates using (S2 pipettor, Apricot Designs). A standard curve was prepared using MMP-3 analyte (range […]). 1.7 μL of 8× mix of Eu-labelled anti-MMP-3 antibody and ULight labelled anti-MMP-3 antibody was added to the plates using Mantis Liquid handler (Formulatrix). Plates were incubated overnight at room temperature. LANCE signal was detected using an EnVision Multilabel reader (Perkin Elmer), equipped with TR-FRET using excitation wavelength of 320 nm and two emission wavelengths of 615 nm and 665 nm. Data was analyzed according to the kit protocol, using the ratio of […] and the standard curve values were used to calculate the amount of MMP3 in the […] (in pg/ml). The normalized averages (fold change over IL1-β stimulated) for each compound concentration were calculated. EC50 and maximum % inhibition values were calculated using the dose-response nonlinear regression curve-fit in Dotmatics.

[2] = target: CLK2 kinase (Homo sapiens, UniProt P49760); test: CLK2 kinase activity assay (Z-lyte FRET); type: biochemical; conditions: Z-lyte Ser/Thr 6 peptide, 60 μM ATP, 1 h at room temperature;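 note: FRET read-out as coumarin to fluorescein emission ratio, unphosphorylated peptide as 0% and phosphorylated peptide as 100% controls, duplicate reactions, non-linear regression fit of dose-response curves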
[3] = test system: Wnt pathway activity (SW480 colon carcinoma cells stably expressing the Sp5-Luc reporter); test: Wnt pathway activity screening assay (Sp5-Luc reporter gene assay); conditions: Homo sapiens, SW480, Table 4; SW480 cells stably expressing Sp5-Luc reporter, 10-point dose-response from 10 μM, 36 to 48 hours
[4] = test system: primary human mesenchymal stem cells (hMSCs); test: Chondrogenesis screening using primary human mesenchymal stem cells; type: cell-based; conditions: Homo sapiens, Mesenchymal stem cells, hMSC chondrogenesis; maximum activity relative to TGF-β3 (10 ng/mL) positive control; read-out: Max. Activity as % TGF-β3 activity
How it was run: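 Primary hMSCs at passage 3–6 were treated across compound concentrations, with TGF-β3 as positive control. Chondrogenic nodule area per well was normalized to 3 DMSO wells on the same plate (fold over DMSO, 2–3 replicates). EC50, maximum activity and the dose reaching it were derived.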

Chain of CLK2 kinase (P49760 whole entry): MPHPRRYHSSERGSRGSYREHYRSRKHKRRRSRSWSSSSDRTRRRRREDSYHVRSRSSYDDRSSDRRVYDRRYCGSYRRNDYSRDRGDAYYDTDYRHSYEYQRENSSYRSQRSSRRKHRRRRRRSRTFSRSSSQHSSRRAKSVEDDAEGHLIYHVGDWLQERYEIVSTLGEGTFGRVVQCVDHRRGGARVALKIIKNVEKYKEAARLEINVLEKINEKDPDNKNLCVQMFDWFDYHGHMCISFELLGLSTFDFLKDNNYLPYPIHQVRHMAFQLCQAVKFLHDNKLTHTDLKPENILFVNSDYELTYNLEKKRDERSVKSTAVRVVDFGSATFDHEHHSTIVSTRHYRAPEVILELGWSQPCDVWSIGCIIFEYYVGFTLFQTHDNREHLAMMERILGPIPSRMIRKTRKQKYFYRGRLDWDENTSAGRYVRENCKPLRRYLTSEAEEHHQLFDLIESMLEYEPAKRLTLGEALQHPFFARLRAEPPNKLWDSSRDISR

| EC50 [2] [nM] | EC50 [3] [nM] | Structure (SMILES) | EC50 [1] [nM] | Emax [1] [%] | Emax [4] [%] |
| --- | --- | --- | --- | --- | --- |
| 18 | 3570 | COc1cncc(C#Cc2c[nH]nc2C(=O)Nc2ccc(OC3CCN(C)CC3)nc2)c1 [compound 30] | ≥ 3000 | 3.4 | – |
| – | 630 | Cc1n[nH]c2cc(F)c(-c3cncc(OC4CCNC[C@@H]4F)n3)cc12 (some centres unmarked) [compound 46] | 1050 | 100 | 43.8 |
| – | 809 | Cc1n[nH]c2ccc(-c3cncc(NC(CO)Cc4cccc(C(F)(F)F)c4)n3)cc12 (centres unmarked) [compound 51] | ≥ 3000 | 48.1 | – |
| – | 1030 | O=C(NC1C[C@@H]1c1ccccc1)c1n[nH]c2ccc(-c3cncc(CN4CCCCC4)c3)cc12 (some centres unmarked) [compound 76] | 0.4 | 97.9 | – |
| 8 | > 10000 | O=C(Nc1cncc(-c2ccc3[nH]nc(-c4nc5c(-c6ccccn6)ccnc5[nH]4)c3n2)c1)c1ccccc1 [compound 630] | 5.1 | 67 | – |
| 10 | 3380 | O=C(Nc1cncc(-c2ccc3[nH]nc(-c4nc5c(-c6cccs6)cccc5[nH]4)c3n2)c1)C1CC1 [compound 631] | 6.7 | 72 | – |
| 3 | > 10000 | COc1cncc(-c2ccc3[nH]nc(-c4nc5c(N6CCCCC6)ccnc5[nH]4)c3n2)c1 [compound 632] | 123 | 72.2 | – |
| 8 | 3660 | Fc1ccc(-c2cccc3[nH]c(-c4n[nH]c5ncc(-c6cncc(CN7CCCCC7)c6)cc45)cc23)cc1 [compound 634] | 46.1 | 83.8 | – |
| 10 | 6070 | CN(C)CCNc1cc(F)cc(-c2cccc3[nH]c(-c4n[nH]c5ncc(-c6ccncc6)cc45)cc23)c1 [compound 635] | 4 | 78.5 | – |
| – | > 10000 | CN1CCC(C(=O)Nc2cc3cc(-c4cnsc4)cnc3cn2)CC1 [compound 639] | ≥ 3000 | 43.7 | – |
| – | > 10000 | O=C(Nc1cc2cc(-c3cnco3)cnc2cn1)C1CCNCC1 [compound 641] | 35.8 | 48.4 | – |

Second part, the compound before the results:

| Structure (SMILES) | EC50 [2] [nM] | EC50 [3] [nM] | EC50 [1] [nM] | Emax [1] [%] | Emax [4] [%] |
| --- | --- | --- | --- | --- | --- |
| O=C(Nc1cccnc1)Nc1c[nH]nc1C(=O)Nc1ccc(C(F)(F)F)nc1 [compound 16] | 95 | 679 | 8.7 | 99.5 | – |
| COc1cncc(C#Cc2c[nH]nc2C(=O)Nc2ccc(OCCN3CCCC3)nc2)c1 [compound 31] | 28 | 1210 | ≥ 3000 | 2.4 | – |
| O=C(Nc1cccnc1)c1n[nH]cc1C#Cc1cncc(OC2CCNCC2)c1 [compound 32] | 38 | 1270 | 0.2 | 77.8 | – |
| Cc1n[nH]c2ccc(-c3cncc(OC[C@@H](N)Cc4ccccc4)c3)cc12 [compound 35] | – | 262 | ≥ 3000 | 99.3 | – |
| O=C(NC1C[C@@H]1c1ccccc1)c1n[nH]c2ccc(-c3cccnc3)cc12 (some centres unmarked) [compound 59] | – | 1390 | 1.6 | 99.2 | – |
| Fc1cccc(-c2cncc3[nH]c(-c4n[nH]c5ccc(-c6cnccn6)nc45)nc23)c1 [compound 625] | 5 | > 10000 | ≥ 3000 | 70.9 | – |
| COc1cccc(-c2cncc3[nH]c(-c4n[nH]c5ccc(-c6cncc(NC(=O)C7CCCCC7)c6)nc45)nc23)c1 [compound 627] | 7 | > 10000 | ≥ 3000 | 90.7 | – |
| Fc1ccc(-c2cccc3[nH]c(-c4n[nH]c5ccc(-c6cncnc6)nc45)nc23)cc1 [compound 628] | 5 | > 10000 | ≥ 3000 | 54.3 | – |
| O=C(Nc1cncc(-c2ccc3[nH]nc(-c4nc5c(-c6cccc(F)c6)cccc5[nH]4)c3n2)c1)C1CC1 [compound 629] | 9 | 1080 | 0.2 | 70 | – |
